Assay results taken from patent US9393222B2, “Use of HDAC and/or DNMT inhibitors for treatment of ischemic injury” (The Trustees of the University of Pennsylvania, priority 2004, dated 2016).

Assays:
[1] = tested on: myocardial ischemia-reperfusion injury; assay: Mouse myocardial ischemia-reperfusion (45 min LAD coronary artery occlusion, 24 h reperfusion), infarct size/area at risk; type: in vivo, mice
Method: Mice were injected with 5-aza-2′dC or saline, then subjected to ischemia. […] Both visual blanching and ST segment elevation on continuous ECG display confirmed myocardial ischemia. After 45 minutes, the PE-10 tubing was removed, permitting reperfusion. The sternotomy wound was closed in two layers with 4-0 Vicryl (Ethicon, Inc., Sommerville, N.J.) and the mouse extubated. 24 hours later, the mice were sacrificed, and infarcted and at-risk myocardial tissue was quantitated to determine infarct size.
The volume of viable myocardium remaining was determined by incubation of the tissue with 2% triphenyltetrazolium chloride: mice were euthanized by CO2 inhalation, the hearts were removed, and the aorta cannulated with a 21-gauge blunt-ended needle. Hearts were perfused with 3 ml of phosphate buffered saline solution, followed by 3 ml of 1% (2,3,5)-triphenyltetrazolium (TTC) at 37° C. The hearts were frozen at −80° C. for 20 minutes and cut into 1.5-mm slices. Each slice was individually weighed and photographed with incident light on both sides with a Leica DC200 CCD camera and MZ16 stereomicroscope (Leica Microsystems, Inc.) Infarct area was determined by visualizing TTC precipitate-excluded areas using NIH Image J software.
The volume of tissue at risk for ischemic injury (i.e. tissue lacking normal blood flow during the occlusion) was assessed by injection of the mice with FluoSphere 15-micron fluorescent microspheres (Molecular Probes/Invitrogen, Eugene, Oreg.) in the ascending aorta (clamped distally) after re-ligation of the left anterior descending coronary artery. The heart was sectioned, and fluorescence measured by cutting the tissue into 100 μm slices and determining the area of microsphere perfused cardiac tissue (perfused tissue) and the area excluded from microspheres (area at risk).
The volume of necrotic tissue was divided by the volume of tissue at risk for ischemic injury, to obtain the infarct size. Infarct size in the drug-treated groups was compared to the infarct size in the vehicle-treated group to determine the relative reduction in injury reported in the Table.
To ascertain the effect of DNMT inhibition on ischemic injury, mice were injected in the left ventricle with either the DNMT inhibitor 5-aza-2-deoxycytidine (5-aza-2′dC) or saline (negative control), then cardiac ischemia was induced by occlusion of the left anterior descending coronary artery for 45 minutes. The hearts were re-perfused for 24 hours, and the mice were sacrificed.
Mice were administered either the HDAC inhibitor TSA or vehicle (DMSO) alone, in the left ventricle. Ischemia was induced by occlusion of the left anterior descending coronary artery for 45 minutes, and mice were sacrificed following a 24-hour reperfusion period. The volume of infarcted and at-risk myocardial tissue was quantitated as described for Example 1.
To further characterize the effect of HDAC inhibitors and DNMT inhibitors on ischemic injury, a larger study was conducted, in which the HDAC inhibitor was added at several time points. In addition, a different HDAC inhibitor, Scriptaid (BioMol, Plymouth Meeting, Pa.), was tested, together with its corresponding negative control compound, Nullscript (Biomol). Ischemia was induced, and amounts of viable and necrotic tissue measured, as described for Example 1. A total of 217 mice were utilized in this Example, distributed as follows: Saline=38; DMSO=45; Nullscript=11; TSA-T1=31; TSA-T2=25; TSA-T3=15; Scriptaid=25; 5aza2′dC=27. […] In addition, HDAC inhibitors were effective when administered either before ischemia or 1 hour after ischemia.

[2] = tested on: histone H3 acetylation (acetyl-Lys9 H3); assay: Histone acetylation in ischemic myocardium, acid/urea gel and anti-acetyl H3 Western blot; type: in vivo, mice; settings: pre-treatment (1 hour before ischemia)
Method: Cells were lysed in Triton X/deoxycholate buffer (20 millimolar [mM] HEPES, pH 7.2, 1% Triton X-100, 1% sodium deoxycholate, 100 mM sodium chloride, 50 mM sodium fluoride, 5 mM EDTA, 100 μM sodium molybdate, with protease inhibitors), and insoluble material was removed by a 15 minute (min) centrifugation in a microfuge, and the supernatant was subjected to 100,000×g, […] centrifugation. The pellet was extracted with 9 M urea, and the resulting pellet extracted with 0.3 M HCl.
40 centimeter (cm) acetic acid/urea gels were prepared as follows: The separating gel (0.75 millimeter [mm] thick) contained 15% acrylamide/0.2% methylenebisacrylamide, 4 molar (M) urea, and 5% acetic acid. The stacking gel contained 7.5% acrylamide/0.1% methylenebisacrylamide, 8 M urea, and 5% acetic acid. Proteins were solubilized in sample buffer (8 M urea, 5% acetic acid, 5% 2-mercaptoethanol, 25 milligram per milliliter (mg/ml) protamine sulfate, with methyl green) and loaded onto gels that had been pre-electrophoresed to a constant current and scavenged with […] cysteamine (Sigma-Aldrich). […]
To determine the effect of ischemia and HDAC inhibitors on histone acetylation, ischemia was induced in mice, as described in Example 1, and the degree of histone acetylation in myocardium was determined Histone acetylation was reduced in response to ischemia (FIG. 1).

[3] = time of treatment not given in Table 3
[4] = T1: treatment 1 hour before ischemia
[5] = T2: treatment 1 hour after ischemia
[6] = T3: treatment 12 hours after ischemia

Nc1ncn([C@H]2C[C@H](O)[C@@H](CO)O2)c(=O)n1 [5-aza-2′dC, 5-aza-2-deoxycytidine]
reduction of infarct size vs saline ([1]; mice, injected in left ventricle before 45 min LAD occlusion, 24 h reperfusion): 69.6% | Ratio of infarct size/area at risk ([1]; mice, injected in left ventricle before 45 min LAD occlusion, 24 h reperfusion (Table 1)): 10.3% | % decrease (w.r.t. DMSO) [1, 3]: 71.40% | Infarct size/area at risk (±SEM) [1, 3]: 10.3% ± 0.03%

O=C(CCCCCN1C(=O)c2cccc3cccc(c23)C1=O)NO [Scriptaid]
% decrease (w.r.t. DMSO) [1, 4]: 44.20% | Infarct size/area at risk (±SEM) [1, 4]: 21.2% ± 0.33%

CC(/C=C/C(=O)NO)=C\[C@@H](C)C(=O)c1ccc(N(C)C)cc1 [TSA, trichostatin A]
effect on ischemia-induced reduction in histone acetylation [2]: partially prevented the reduction in histone acetylation | % decrease (w.r.t. DMSO) [1, 4]: 48.30% | Infarct size/area at risk (±SEM) [1, 4]: 18.6% ± 0.04% | % decrease (w.r.t. DMSO) [1, 5]: 55.60% | Infarct size/area at risk (±SEM) [1, 5]: 16.0% ± 0.04% | % decrease (w.r.t. DMSO) [1, 6]: 8.30% | Infarct size/area at risk (±SEM) [1, 6]: 33.0% ± 0.05% | reduction in infarct size vs DMSO vehicle ([1]; mice, administered in left ventricle, 45 min LAD occlusion, 24 h reperfusion): 48.3% | Ratio of infarct size/area at risk ([1]; mice, administered in left ventricle, 45 min LAD occlusion, 24 h reperfusion (Table 2)): 18.6%

O=C(CCCN1C(=O)c2cccc3cccc(c23)C1=O)NO [Nullscript]
Infarct size/area at risk (±SEM) [1, 3]: 38.0% ± 0.56%
